As usually defined, the melting point is the temperature of the solid-liquid transition. Broadly, the IC50 is the concentration that inhibits the measured activity by half. A low value points to greater potency.

In patent publication US6589949B1, “3-oxo-2,1-benzisoxazol-1(3H)-carboxamides for treatment of CNS diseases” (Bayer Aktiengesellschaft, priority 1999, dated 2003) one finds melting point and IC50 data, which are given here for 13 molecules.

Structures are written as SMILES.

The target in series [1] is T1, acylpeptide hydrolase (ACPH) (Rattus norvegicus, UniProt P13676).
T1 construct: 50 μl of brain homogenate and 100 μM N-acetyl-methionyl-aminomethyl-coumarin as the enzyme substrate; from tissue; host or cells: rat brain homogenate
T1 sequence (P13676 1-732): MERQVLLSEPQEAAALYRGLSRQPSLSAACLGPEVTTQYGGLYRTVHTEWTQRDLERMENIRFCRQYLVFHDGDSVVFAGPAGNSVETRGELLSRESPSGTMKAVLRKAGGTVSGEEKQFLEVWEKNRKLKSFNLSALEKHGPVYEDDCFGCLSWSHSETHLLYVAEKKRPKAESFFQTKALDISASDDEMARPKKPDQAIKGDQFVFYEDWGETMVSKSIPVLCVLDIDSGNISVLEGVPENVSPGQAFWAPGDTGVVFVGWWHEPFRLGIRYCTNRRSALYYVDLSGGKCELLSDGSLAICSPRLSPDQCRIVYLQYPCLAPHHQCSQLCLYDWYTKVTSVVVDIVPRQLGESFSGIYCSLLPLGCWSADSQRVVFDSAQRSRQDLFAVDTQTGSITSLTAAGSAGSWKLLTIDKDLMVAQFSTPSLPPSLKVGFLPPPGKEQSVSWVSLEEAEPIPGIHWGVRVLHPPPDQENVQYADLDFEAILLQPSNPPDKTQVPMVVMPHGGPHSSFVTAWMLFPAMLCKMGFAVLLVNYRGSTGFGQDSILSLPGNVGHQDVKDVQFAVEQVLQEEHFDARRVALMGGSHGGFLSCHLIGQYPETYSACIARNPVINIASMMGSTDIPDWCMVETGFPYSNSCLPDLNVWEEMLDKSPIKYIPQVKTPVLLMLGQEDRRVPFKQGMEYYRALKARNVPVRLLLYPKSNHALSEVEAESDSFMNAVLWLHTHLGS
Briefly: In vitro determination of the inhibition of ACPH. The settings on record: rat brain homogenate; substrate 100 μM N-acetyl-methionyl-aminomethyl-coumarin; 30 min preincubation, 30 min reaction. Type of series: biochemical. The procedure: In vitro determination of the Inhibition of ACPH
In the standard experiment, rat brains are homogenized in a 10-fold volume (w/v) of 50 mM tris HCl buffer, 1 mM EDTA, 100 mM NaCl, 0.1% BSA, 1 mM DDT, pH 7.2. The protein concentration of the homogenate is adjusted to approximately 5 mg/ml by dilution with buffer. The incubation batch (110 μl) contains 40 μl of buffer, various test concentrations of the test substances to be tested in 10 μl of buffer, 50 μl of brain homogenate and 100 μM N-acetyl-methionyl-aminomethyl-coumarin as the enzyme substrate. Before addition of the substrate, the reaction mixture is preincubated at room temperature for 30 min. The enzyme reaction is started by substrate addition. The reaction time is 30 min. Afterwards, the samples are activated in a fluorimeter at 390 nm and determined quantitatively at 460 nm. The IC50 value is calculated from the enzyme activity in the presence of increasing concentrations of test substance in the test. For the measurement of the ACPH activity, purified enzyme from liver or other organs can also be used and also homogenates of other organs having ACPH activity, such as liver or erythrocytes.

`CN(CCCl)C(=O)n1oc(=O)c2cc(Cl)ccc21`: the melting point is 52 °C.
As to `O=C(N1CCC1)n1oc(=O)c2ccccc21` [Example 2], the melting point was determined as 163 °C.
In turn, `O=C(N1CCCC1)n1oc(=O)c2ccccc21` [Example 3] came in with a melting point of 99 °C.
`O=C(N1CCCC1)n1oc(=O)c2c(F)cccc21` [Example 4] displayed a melting point of 109 °C. In addition, half-maximal inhibition in series [1] (IC50) required 6 nM.
The matching figures for `CN(C)C(=O)n1oc(=O)c2ccccc21` [Example 5]: 93 °C and 18 nM.
The matching figures for `Cc1ccc2c(c1)c(=O)on2C(=O)N1CCCC1` [Example 6]: 129 °C and 48 nM.
The matching figures for `O=C(N1CCCC1)n1oc(=O)c2cc(F)c(F)cc21` [Example 7]: 133 °C and 99 nM.
In the case of `O=C(N1CCCC1)n1oc(=O)c2cc(Cl)ccc21` [Example 8], the melting point was 103 °C.
Still for that read-out and setting: then `O=C(N1CCOCC1)n1oc(=O)c2ccc(Cl)cc21` [Example 10], with 116 °C; and `O=C(N1CC2CCC2C1)n1oc(=O)c2ccc(Cl)cc21` (centres unmarked) [Example 12], with 98 °C; and `O=C(N1CCOCC1)n1oc(=O)c2c(F)cccc21` [Example 14], with 141 °C.
Molecule `O=C(N1CC2CCC2C1)n1oc(=O)c2cc(Cl)ccc21` (centres unmarked) [Example 15] showed a melting point of 85 °C.
Still for that read-out and setting: the same measure for `O=C(N1CCOCC1)n1oc(=O)c2cc(Cl)ccc21` [Example 19]: 153 °C.
